ChEMBL document CHEMBL4765356, “Synthesis and biological evaluation of thiophenylbenzofuran derivatives as potential P-glycoprotein inhibitors” (Eur J Med Chem, 2020)

Experiments:
[1] = Cytotoxicity against Flp-In-293 cells assessed as reduction in cell viability measured after 72 hrs by SRB assay; assay type: cell-based; settings: Homo sapiens, Flp-In-293, 72 h
[2] = Cytotoxicity against Flp-In-293 cells expressing human ABCB1 assessed as reduction in cell viability measured after 72 hrs by SRB assay; assay type: ADME, cell-based; settings: Flp-In-293, 72 h
HeLa = test: Cytotoxicity against human HeLa cells assessed as reduction in cell viability measured after 72 hrs by SRB assay; assay type: cell-based
[3] = Cytotoxicity against human KB-VIN cells assessed as reduction in cell viability measured after 72 hrs by SRB assay; assay type: cell-based; settings: KBVIN

Measured: IC50

COc1ccc(CCN(C)CCCC(C#N)(c2ccc(OC)c(OC)c2)C(C)C)cc1OC (centres undefined)
> 50 µM: all assays above
